ChEMBL document CHEMBL1201862, “PubChem BioAssay data set” (2004)
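96-well plates; 48 h exposure; 5 concentrations. Endpoints by linear interpolation between flanking doses. Not reached: highest tested concentration assigned. GI50 = concentration required for 50% inhibition of growth.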 Active and inactive are the calls of the source. Cut-off read from the data, not from the text of the source: active = GI50 up to about 1.1 µM and inactive = higher.

Key:
Experiment in all cases: NCI anticancer screen, dose series, 48 h
786-0 = tested on: 786-0
CAKI-1 = tested on: CAKI-1
CCRF-CEM = tested on: CCRF-CEM
HCT-15 = tested on: HCT-15
HL-60 = tested on: HL-60
HOP-62 = tested on: HOP-62
HOP-92 = tested on: HOP-92
Hs-578T = tested on: Hs-578T
MDA-MB-231 = tested on: MDA-MB-231
NCI-H522 = tested on: NCI-H522
OVCAR-5 = tested on: OVCAR-5
PC-3 = tested on: PC-3
SF-268 = tested on: SF-268
SK-MEL-2 = tested on: SK-MEL-2
SNB-19 = tested on: SNB-19
SNB-75 = tested on: SNB-75
T47D = tested on: T47D
TK-10 = tested on: TK-10
UACC-62 = tested on: UACC-62
SN12C = tested on: SN12C

| Structure (SMILES) | GI50 (786-0) | GI50 (CAKI-1) | GI50 (CCRF-CEM) | GI50 (HCT-15) [µM] | GI50 (HL-60) | GI50 (HOP-62) | GI50 (HOP-92) | GI50 (Hs-578T) | GI50 (MDA-MB-231) | GI50 (NCI-H522) | GI50 (OVCAR-5) | GI50 (PC-3) | GI50 (SF-268) | GI50 (SK-MEL-2) | GI50 (SNB-19) | GI50 (SNB-75) | GI50 (T47D) | GI50 (TK-10) | GI50 (UACC-62) | GI50 (SN12C) |
| --- | --- | --- | --- | --- | --- | --- | --- | --- | --- | --- | --- | --- | --- | --- | --- | --- | --- | --- | --- | --- |
| Cc1ccc(SC[C@@]2(C(F)F)NC(=O)NC2=O)cc1 | > 100 µM (inactive) | > 100 µM (inactive) | > 100 µM (inactive) | > 100 | > 100 µM (inactive) | > 100 µM (inactive) | > 100 µM (inactive) | > 100 µM (inactive) | > 100 µM (inactive) | > 100 µM (inactive) | > 100 µM (inactive) | > 100 µM (inactive) | > 100 µM (inactive) | > 100 µM (inactive) | > 100 µM (inactive) | > 100 µM (inactive) | > 100 µM (inactive) | > 100 µM (inactive) | > 100 µM (inactive) | – |
| O=C1OC(C2Cc3ccc4ccccc4c3C2=O)c2ccccc21 (stereo not drawn) | 46.3 µM (inactive) | 61.9 µM (inactive) | 31 µM (inactive) | 34.8 | 50 µM (inactive) | – | 49.8 µM (inactive) | 31.6 µM (inactive) | > 100 µM (inactive) | 36.9 µM (inactive) | > 100 µM (inactive) | 48.8 µM (inactive) | 33.8 µM (inactive) | 47.8 µM (inactive) | 23.2 µM (inactive) | 32.3 µM (inactive) | 63 µM (inactive) | 60 µM (inactive) | 33.7 µM (inactive) | 93.5 µM (inactive) |
| CCC(c1c[nH]c2ccc(Br)cc12)c1c[nH]c2ccc(Br)cc12 | 3.56 µM (inactive) | 2.45 µM (inactive) | 2.95 µM (inactive) | 4.01 | 4.39 µM (inactive) | 10.5 µM (inactive) | 2.05 µM (inactive) | 5.82 µM (inactive) | 11.1 µM (inactive) | 4.44 µM (inactive) | 3.78 µM (inactive) | 4.81 µM (inactive) | 5.97 µM (inactive) | 10.6 µM (inactive) | 8.57 µM (inactive) | – | 2.3 µM (inactive) | 10.9 µM (inactive) | 10.2 µM (inactive) | 3.7 µM (inactive) |
| O=C1CSC(c2ccc(Cl)cc2)N1c1ccc(Oc2ccc(Cl)cc2)c(Cl)c1 (stereo not drawn) | 16.8 µM (inactive) | 13.3 µM (inactive) | 5.46 µM (inactive) | 15.8 | 11 µM (inactive) | 21.3 µM (inactive) | 15.7 µM (inactive) | 11 µM (inactive) | 16.4 µM (inactive) | 7.13 µM (inactive) | 14.2 µM (inactive) | 15.2 µM (inactive) | 10.7 µM (inactive) | 16 µM (inactive) | 15.6 µM (inactive) | 12.3 µM (inactive) | 10.7 µM (inactive) | 18.7 µM (inactive) | 15.4 µM (inactive) | 20 µM (inactive) |
| CCOP(=O)(C/C=C/Cn1ncc(=O)[nH]c1=O)OCC | – | > 100 µM (inactive) | > 100 µM (inactive) | > 100 | > 100 µM (inactive) | > 100 µM (inactive) | > 100 µM (inactive) | > 100 µM (inactive) | > 100 µM (inactive) | > 100 µM (inactive) | > 100 µM (inactive) | > 100 µM (inactive) | > 100 µM (inactive) | > 100 µM (inactive) | > 100 µM (inactive) | > 100 µM (inactive) | > 100 µM (inactive) | > 100 µM (inactive) | – | > 100 µM (inactive) |
| OCc1cc2c(ccc3sc4ccc5sc6ccc7ncccc7c6c5c4c32)s1 | 3.55 µM (inactive) | 10.6 µM (inactive) | 19.7 µM (inactive) | 10.7 | 10.1 µM (inactive) | 12.7 µM (inactive) | 29.6 µM (inactive) | 8.53 µM (inactive) | 4.17 µM (inactive) | 11 µM (inactive) | 15.3 µM (inactive) | 5.93 µM (inactive) | – | 14.5 µM (inactive) | 11.3 µM (inactive) | 3.89 µM (inactive) | 8.22 µM (inactive) | 31.8 µM (inactive) | 7.45 µM (inactive) | 11 µM (inactive) |
| CC(=O)Nc1ccc2[nH]c(C(=O)N3CC(CCl)c4c3cc([N+](=O)[O-])c3ccccc43)cc2c1 (stereo not drawn) | 10.7 µM (inactive) | 3.93 µM (inactive) | 0.879 µM (active) | 6.47 | 1.01 µM (active) | – | 2.5 µM (inactive) | 4.26 µM (inactive) | > 51.4 µM (inactive) | 1.14 µM (inactive) | 13.1 µM (inactive) | 1.2 µM (inactive) | 1.98 µM (inactive) | 13.8 µM (inactive) | > 30.2 µM (inactive) | 3.4 µM (inactive) | 2.77 µM (inactive) | 6.32 µM (inactive) | 4.52 µM (inactive) | 7.8 µM (inactive) |
| CO/C(=N\N=C(/C)C(F)(F)F)c1ccncc1 | – | > 100 µM (inactive) | > 100 µM (inactive) | > 100 | > 100 µM (inactive) | > 100 µM (inactive) | > 100 µM (inactive) | > 100 µM (inactive) | > 100 µM (inactive) | > 100 µM (inactive) | > 100 µM (inactive) | 38.7 µM (inactive) | – | > 100 µM (inactive) | > 100 µM (inactive) | > 100 µM (inactive) | > 100 µM (inactive) | – | > 100 µM (inactive) | > 100 µM (inactive) |
| CC(O)C1(CNc2cc(Cl)nc(N)n2)CCCCC1 (stereo not drawn) | > 100 µM (inactive) | > 100 µM (inactive) | 97.5 µM (inactive) | > 100 | 89.7 µM (inactive) | > 100 µM (inactive) | 69.3 µM (inactive) | > 100 µM (inactive) | > 100 µM (inactive) | 55.7 µM (inactive) | > 100 µM (inactive) | 65.6 µM (inactive) | > 100 µM (inactive) | > 100 µM (inactive) | > 100 µM (inactive) | 69.5 µM (inactive) | 59 µM (inactive) | > 100 µM (inactive) | > 100 µM (inactive) | 82.6 µM (inactive) |
| CCOC(=O)c1ccc(/N=c2/[nH]c3ccccc3s/c2=N/c2ccc(C(=O)OCC)cc2)cc1 | 25.4 µM (inactive) | > 100 µM (inactive) | > 100 µM (inactive) | > 100 | > 100 µM (inactive) | > 100 µM (inactive) | > 100 µM (inactive) | 39.5 µM (inactive) | > 100 µM (inactive) | 5.24 µM (inactive) | > 100 µM (inactive) | > 100 µM (inactive) | > 100 µM (inactive) | > 100 µM (inactive) | > 100 µM (inactive) | 48 µM (inactive) | > 100 µM (inactive) | > 100 µM (inactive) | > 100 µM (inactive) | > 100 µM (inactive) |
| S=C1C(CCCOCc2ccccc2)C2CCCC23CC2(CCN13)OCCS2 (stereo not drawn) | > 10 µM (inactive) | > 10 µM (inactive) | > 10 µM (inactive) | > 10 | > 10 µM (inactive) | > 10 µM (inactive) | > 10 µM (inactive) | > 10 µM (inactive) | > 10 µM (inactive) | > 10 µM (inactive) | > 10 µM (inactive) | > 10 µM (inactive) | > 10 µM (inactive) | > 10 µM (inactive) | > 10 µM (inactive) | > 10 µM (inactive) | > 10 µM (inactive) | > 10 µM (inactive) | – | > 10 µM (inactive) |
| O=Cc1ccc(-c2cccc([N+](=O)[O-])c2)s1 | 80 µM (inactive) | > 100 µM (inactive) | 96.2 µM (inactive) | > 100 | 64.4 µM (inactive) | > 100 µM (inactive) | > 100 µM (inactive) | 53.6 µM (inactive) | > 100 µM (inactive) | > 100 µM (inactive) | > 100 µM (inactive) | > 100 µM (inactive) | > 100 µM (inactive) | > 100 µM (inactive) | > 100 µM (inactive) | 70.8 µM (inactive) | 86.5 µM (inactive) | > 100 µM (inactive) | > 100 µM (inactive) | > 100 µM (inactive) |
| CN(CCC#N)c1ccc(/C=C2\SC(=S)NC2=O)cc1 | 34.8 µM (inactive) | > 100 µM (inactive) | 6.75 µM (inactive) | 48.2 | 24.3 µM (inactive) | 41.3 µM (inactive) | 22.6 µM (inactive) | 33.3 µM (inactive) | 56 µM (inactive) | 71.1 µM (inactive) | > 100 µM (inactive) | 34.3 µM (inactive) | 63.1 µM (inactive) | 35 µM (inactive) | 71 µM (inactive) | 35 µM (inactive) | 51.2 µM (inactive) | 49.7 µM (inactive) | 19.8 µM (inactive) | 80.4 µM (inactive) |
| CN(C)c1nc2nonc2nc1Nc1ccccc1 | > 100 µM (inactive) | – | > 100 µM (inactive) | > 100 | > 100 µM (inactive) | > 100 µM (inactive) | > 100 µM (inactive) | > 100 µM (inactive) | > 100 µM (inactive) | > 100 µM (inactive) | > 100 µM (inactive) | > 100 µM (inactive) | > 100 µM (inactive) | > 100 µM (inactive) | > 100 µM (inactive) | > 100 µM (inactive) | > 100 µM (inactive) | > 100 µM (inactive) | > 100 µM (inactive) | > 100 µM (inactive) |
| CC1(C)C[C@H]2C3=CC[C@@H]4[C@@]5(C)CC[C@H](O)C(C)(C)[C@@H]5CC[C@@]4(C)[C@]3(C)C[C@@H](O)[C@@]23C[C@@H]1OC3=O | > 100 µM (inactive) | > 100 µM (inactive) | > 100 µM (inactive) | > 100 | 37.1 µM (inactive) | > 100 µM (inactive) | > 100 µM (inactive) | > 100 µM (inactive) | > 100 µM (inactive) | 56.5 µM (inactive) | > 100 µM (inactive) | 68.1 µM (inactive) | > 100 µM (inactive) | > 100 µM (inactive) | > 100 µM (inactive) | > 100 µM (inactive) | 56.6 µM (inactive) | > 100 µM (inactive) | > 100 µM (inactive) | > 100 µM (inactive) |
